For 55 compounds, AC40 results are on record in PubChem BioAssay AID624405 (Broad Institute, 2012).

Records with an inconclusive call do not appear.

For the assay, the system named is C2C12 myotubes + simvastatin, ATP luminescence, 48 h. The assay can be described thus: suppressors of statin myotoxicity in myotubes, dose response, cell-based, C2C12 myotubes, ATP luminescence, cherry pick (AID 624405).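 Also: myotubes are challenged with simvastatin at 10 µM to lower ATP.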
Regarding `COc1cccc(-c2ccc([C@@H]3[C@@H](C#N)N(C(=O)Cc4ccccc4)[C@H]3CO)cc2)c1`, the AC40 was 11.5 µM.
Consider `CCC(c1nnnn1C1CCCC1)N1CCN(c2ccccc2F)CC1` (stereo not given), for which the AC40 was 4.11 µM.
As for `CCOC(=O)n1c(=O)n(Cc2c(Cl)cccc2Cl)c2ccccc21`, the AC40 is 7.14 µM.
The value for `COc1ccc(S(=O)(=O)Nc2ccc3c(c2)OCCO3)cc1Cl` was 1.46 µM; that for `COc1ccc2c(Cl)c(-c3nnc(SCC(=O)c4ccccc4)n3C)sc2c1` was 1.13 µM.
Take `Cc1cccc(S(=O)(=O)N2CCCCN3[C@H](CO)[C@@H](c4ccc(C#C[C@H](C)O)cc4)[C@@H]3C2)c1`: the AC40 is 17.3 µM.
Take `Fc1ccc(-c2csc(Nc3ccccn3)n2)cc1`: the AC40 was 7.31 µM.
On to `Cc1noc(C)c1S(=O)(=O)Nc1ccc2c(c1)CC(=O)N([C@H](C)CO)C[C@@H](C)[C@@H](CN(C)Cc1ccc(-c3ccccc3)cc1)O2`, for which the AC40 is 3.64 µM.
For the compound `Cc1ccc(S(=O)(=O)Nc2ccc3c(c2)CC(=O)N([C@H](C)CO)C[C@H](C)[C@@H](CN(C)Cc2ccc(Cl)c(Cl)c2)O3)cc1`, the AC40 was 8.12 µM.
Turning to `CCC(C(=O)N(C(C)C)C(C)C)c1ccccc1` (stereo not given), the AC40 is 18.8 µM.
In the case of `COc1ccc(S(=O)(=O)Nc2cccc3c2O[C@H](CN(C)C(=O)Nc2ccc(F)cc2)[C@H](C)CN([C@@H](C)CO)C3=O)cc1` it was 6.89 µM; in that of `O=C1c2ccccc2-c2onc3ccc(Oc4ccccc4)c1c23`, 5.91 µM.
In the case of `C[C@H](CO)N1C[C@H](C)[C@H](CN(C)C(=O)Nc2ccc(F)cc2)Oc2ncc(C#Cc3ccc(C(F)(F)F)cc3)cc2C1=O`, the AC40 was 13.5 µM.
In the case of `COc1ccc(S(=O)(=O)Nc2ccc3c(c2)CC(=O)N([C@H](C)CO)C[C@H](C)[C@@H](CN(C)Cc2ccc(Cl)c(Cl)c2)O3)cc1`, the AC40 was 15.9 µM.
Regarding `C[C@H](CO)N1C[C@H](C)[C@@H](CN(C)Cc2ccc(Oc3ccccc3)cc2)Oc2c(NC(=O)Nc3cccc4ccccc34)cccc2C1=O`, the AC40 is 7.98 µM.
In the case of `C[C@@H]1CN([C@@H](C)CO)C(=O)c2cc(NC(=O)Nc3cccc4ccccc34)ccc2O[C@@H]1CN(C)Cc1ccc(C(=O)Nc2ccccc2N)cc1` it was 2.85 µM; in that of `O=S(=O)(Nc1nc2c(s1)CCCC2)c1ccc2ccccc2c1`, 5.94 µM; in that of `COc1ccc(CN(C)C[C@H]2Oc3ccc(NS(=O)(=O)c4ccc(Cl)cc4)cc3CC(=O)N([C@@H](C)CO)C[C@@H]2C)cc1`, 0.484 µM.
In the case of `C=CCn1c(=O)c2c(nc3n2CC(C)CN3c2cccc(OC)c2)n(C)c1=O` (stereo not given) it was 10.5 µM; in that of `CC1(Cc2ccccc2OC(F)(F)F)C(=O)Nc2ccc(S(=O)(=O)NC3CCCCC3)cc21` (stereo not given), 6.62 µM; in that of `C[C@@H]1CN([C@@H](C)CO)C(=O)c2cc(NC(=O)Nc3cccc4ccccc34)ccc2O[C@H]1CN(C)Cc1ccc(C(=O)Nc2ccccc2N)cc1`, 15.2 µM.
With `O=c1[nH]cnc2scc(-c3ccsc3)c12`, the AC40 is 13.2 µM.
As to `C[C@H]1CN([C@@H](C)CO)C(=O)c2cc(N(C)C)ccc2O[C@@H]1CN(C)Cc1ccc(C(=O)Nc2ccccc2N)cc1`, the AC40 was 5.34 µM.
Regarding `CN(c1ccc(Cl)cc1)c1cc(=O)n(C)c2ccccc12`, the AC40 is below 0.16 µM.
With `C[C@H](CO)N1C[C@H](C)[C@@H](CN(C)Cc2ccc(Cl)c(Cl)c2)Oc2ccc(NC(=O)C3CC3)cc2CC1=O`, the AC40 was 1.23 µM.
As for `C[C@@H]1CN([C@H](C)CO)C(=O)c2cccc(NC(=O)c3nc4ccccc4s3)c2O[C@@H]1CN(C)Cc1ccc(C(=O)Nc2ccccc2N)cc1`, the AC40 is 0.462 µM.
With `O=C(CN1CCC(c2nc3ccccc3s2)CC1)NCc1ccccc1`, the AC40 is 19.3 µM.
The value for `CCCCn1c(C(C)NC(=O)c2cccs2)nc2ccccc21` (stereo not given) was 3.75 µM; that for `COc1cc(CNc2ncnc3c2ncn3[C@H]2CN(Cc3cccc4ccccc34)C[C@@H](CO)O2)cc(OC)c1OC` was 1.36 µM.
As to `Cc1ccc(C2(c3ccc(C)cc3)NC(=O)N(Cc3c(C)noc3C)C2=O)cc1`, the AC40 was 5.45 µM.
In the case of `C[C@H](CO)N1C[C@H](C)[C@@H](CN(C)S(=O)(=O)c2ccc(Cl)cc2)Oc2ccc(NC(=O)NC3CCCCC3)cc2CC1=O` it was 10.3 µM; in that of `CCOC(=O)N1CCN(C(=O)COc2ccc(S(=O)(=O)NC3CCCCC3)cc2C)CC1`, 14.1 µM.
Turning to `Cc1ccc(S(=O)(=O)N2CCN(S(=O)(=O)c3ccc(C)cc3)C2c2ccccc2)cc1`, the AC40 was 18.6 µM.
As to `c1coc(-c2nc3ccccc3s2)c1`, the AC40 is 18 µM.
With `Cc1ccc(S(=O)(=O)Nc2ccc3c(c2)CC(=O)N([C@@H](C)CO)C[C@H](C)[C@@H](CN(C)Cc2ccc(-c4ccccc4)cc2)O3)cc1`, the AC40 was 18.9 µM.
The value for `CCc1ccc(CNCc2cccnc2)cc1` was 17.7 µM; that for `Cc1ccc(S(=O)(=O)Nc2ccc3c(c2)CC(=O)N([C@@H](C)CO)C[C@@H](C)[C@H](CN(C)Cc2ccc(-c4ccccc4)cc2)O3)cc1` was 1.17 µM.
As for `C[C@@H]1CN([C@@H](C)CO)C(=O)c2cccc(NC(=O)Nc3ccc4c(c3)OCO4)c2O[C@H]1CN(C)Cc1ccc(C(=O)Nc2ccccc2N)cc1`, the AC40 was 9.42 µM.
The value for `C[C@@H]1CN([C@@H](C)CO)C(=O)Cc2cc(NC(=O)CCCCCC(=O)Nc3ccccc3N)ccc2O[C@H]1CN(C)Cc1ccc(-c2ccccc2)cc1` was 10.7 µM; that for `C[C@@H]1CN([C@H](C)CO)C(=O)Cc2cc(NC(=O)C3CCCCC3)ccc2O[C@H]1CN(C)Cc1ccc(Cl)c(Cl)c1` was 5.24 µM.
On to `C[C@H](CO)N1C[C@H](C)[C@H](CN(C)Cc2ccc(C(=O)Nc3ccccc3N)cc2)Oc2ccc(NC(=O)Nc3cccc4ccccc34)cc2CC1=O`, for which the AC40 was 10.5 µM.
`Cc1[nH]nc2c1C1(C(=O)N(Cc3ccc(Cl)cc3)c3ccccc31)C(C#N)=C(N)O2` (stereo not given): the AC40 was 4.72 µM.
`C[C@H](CO)N1C[C@H](C)[C@H](CN(C)Cc2ccccc2)Oc2ccc(NC(=O)CCCCCC(=O)Nc3ccccc3N)cc2CC1=O`: the AC40 is 10.1 µM.
In the case of `c1ccc(-c2csc3nnc(SCc4ccc5c(c4)OCCO5)n23)cc1` it was 3.7 µM; in that of `C[C@@H]1CN([C@H](C)CO)C(=O)Cc2cc(NS(=O)(=O)c3ccc(Cl)cc3)ccc2O[C@H]1CN(C)Cc1ccccc1`, 4.44 µM; in that of `C[C@H]1CN([C@@H](C)CO)C(=O)c2cc(NC(=O)Nc3cccc4ccccc34)ccc2O[C@@H]1CN(C)Cc1ccc(C(=O)Nc2ccccc2N)cc1`, 17.7 µM.
`Cc1ccc(O)c(CNc2ccccn2)c1`: the AC40 is 0.443 µM.
As to `C[C@H]1CN([C@@H](C)CO)C(=O)c2cc(C#Cc3ccncc3)cnc2O[C@@H]1CN(C)CC1CCCC1`, the AC40 was 4.52 µM.
In the case of `O=C(CSCc1cnn(-c2ccccc2)c1-n1cccc1)NCc1cccs1` it was 18.9 µM; in that of `Cc1cc2c3c(c1)C1(SCC(=O)N1c1ccc(F)cc1)C(=O)N3C(C)(C)CC2C` (stereo not given), 4.82 µM; in that of `COCc1nc2ccccc2n1CCCOc1ccccc1`, 13.4 µM.
The value for `C[C@@H]1CN([C@@H](C)CO)C(=O)c2cccc(NC(=O)Nc3ccccc3)c2O[C@@H]1CN(C)S(=O)(=O)c1ccc(F)cc1` was 15.1 µM; that for `Cc1cccc(C)c1Nc1nnc(SCc2cc([N+](=O)[O-])cc3c2OCOC3)s1` was 3.85 µM; that for `CCN1C(=O)NC2=C(C(=O)c3ccccc32)C1c1ccccc1F` (stereo not given) was 5.31 µM.
The value for `CC1(Cc2ccc(Cl)cc2)C(=O)Nc2ccc(-c3cccnc3)cc21` (stereo not given) was 15.8 µM.
